Measurements published in patent publication US20100204149A1, “USE OF OCTREOTIDE AS A THERAPEUTIC AGENT” (priority 2007, published 2010).

Tested on: macrophages from human PBMC
Assay: TNF alpha production assay in LPS-stimulated macrophages
Assay type: cell-based
Details: TNF alpha ELISA; peptide 10 micrograms per ml; lipopolysaccharide 200 ng/ml; overnight
Description: The macrophages were prepared by adherence of PBMC to the plastic wells of the plates. After 8 days in culture in the presence of recombinant human macrophage-colony stimulating factor at 2 ng/ml, differentiated macrophages were preincubated with test peptide—10 micrograms per ml—for 30 min, followed by in-well stimulation by the addition of lipopolysaccharide at a final concentration of 200 ng/ml. Not stimulated macrophages served as negative background control.
After overnight incubation, supernatants from the control and LPS-stimulated cultures were harvested and assayed for TNF alpha production employing a TNF alpha specific ELISA.

C[C@@H](O)[C@@H]1NC(=O)[C@H](CCCCN)NC(=O)[C@@H](Cc2c[nH]c3ccccc23)NC(=O)[C@H](Cc2ccccc2)NC(=O)[C@@H](NC(=O)[C@H](N)Cc2ccccc2)CSSC[C@@H](C(=O)N[C@H](CO)[C@@H](C)O)NC1=O [Octreotide, H-D-Phe-Cys-Phe-D-Trp-Lys-Thr-Cys-L-threoninol]
% of LPS induction: 105.8%
